Experiments:
[1] = test system: differentiated HBE cultures; experiment: ASL volume by refracted light microscopy of the meniscus, bumetanide treatment; type: cell-based, human; details: 100 μM bumetanide for three days prior to measurement; mean ±SEM; control filters 10.6±1.0 μL; p<0.001
Protocol: (§1) HBE cells were cultured from excess pathological tissue following lung transplantation and organ donation under protocols approved by the Universities of Pittsburgh and North Carolina Investigational Review Boards. Cells were studied following 3-6 weeks of culture and considered differentiated when a mucociliary phenotype was apparent on phase contrast microscopy. HBE cultures grown in a twenty four well plate on 0.33 cm^2 filter inserts (See, e.g., FIG. 1B) were visualized with a standard cell culture microscope (Olympus CK40) with a 5× plain light objective (Zeiss) and imaged using a Scion CFW 1610M camera with μManager (30). […] In order to standardize the quantification of the meniscus image, a custom script using the open-source ImageJ software was developed. […] The length of the meniscus can be determined as the length from where the grey value is greater than min to the end of the array and the area under the curve (AUC) is measured using the numerically integrated rectangular rule. […] Therefore, the correlation between the derived parameters of the intensity profile and the ASL volume were determined, rather than mathematically calculating the volume based on the AUC of the intensity profile. […] Thus, the ASL volume can be measured from the image of the meniscus by integrating the […] value with the experimentally derived calibration curve shown in FIG. 4B. […]

[2] = test system: differentiated CF HBE cells; experiment: ASL volume by refracted light microscopy after apical fluid bolus, isotonic versus hypertonic; type: cell-based, human; details: 5 μL PBS with 300 mM mannitol applied apically; ASL volume measured at 0, 4, 8, 24, 48 and 72 hours; FIG. 7
Protocol: as §1

Row | Compound | ASL volume [1] [µL] | ASL volume expansion compared to isotonic fluid [2]
1 | CCCCNc1cc(C(=O)O)cc(S(N)(=O)=O)c1Oc1ccccc1 [bumetanide] | 1.1 ± 0.1 | 
2 | OC[C@@H](O)[C@@H](O)[C@H](O)[C@H](O)CO [mannitol] |  | more pronounced and prolonged ASL volume expansion
